The results in this text go back to ChEMBL document CHEMBL1201862, “PubChem BioAssay data set” (2004).

Test systems include HCC 2998; HCT-116; HCT-15; HOP-62; IGROV-1; MOLT-4; Malme-3M; NCI/ADR-RES; OVCAR-3; OVCAR-4; OVCAR-8; RPMI-8226; SF-268; SK-MEL-28; SNB-19; SR; U-251; UO-31; COLO 205.
Holding throughout (assay): NCI-60 cell line screen, 48 h

Structures are written as SMILES.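 Where inhibition never reached the appropriate level, the endpoint shown equals the highest concentration tested. Otherwise, values were interpolated linearly from a five-concentration, 48-hour dose response in 96-well plates. GI50: concentration for 50% inhibition of growth.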 The source made the active and inactive calls. Rule as the data show it: active = GI50 up to about 1.1 µM and inactive = higher.

`Cc1cc(OCC(=O)O)c(Cl)cc1Cl`: the GI50 in the assay with HCC 2998 was > 100 µM (inactive); with HCT-116, > 100 µM (inactive); in the assay on HCT-15 it was > 100 µM; with HOP-62, > 100 µM (inactive); with IGROV-1, > 100 µM (inactive); in the assay with MOLT-4 it was > 100 µM (inactive). The GI50 was > 100 µM (inactive) in the assay on Malme-3M; > 100 µM (inactive) with NCI/ADR-RES; > 100 µM (inactive) in the assay on OVCAR-3; > 100 µM (inactive) in the assay with OVCAR-4; > 100 µM (inactive) in the assay on OVCAR-8; 81.3 µM (inactive) in the assay with RPMI-8226. The GI50 in the assay with SF-268, in the assay with SK-MEL-28, in the assay on SNB-19, with SR, with U-251 and in the assay on UO-31 was > 100 µM (inactive) throughout.

On to `O=C(O)CC(NC(=O)/C(=C/c1ccccc1O)NC(=O)c1ccccc1)C(=O)O` (stereo unspecified), for which the GI50 in the assay on COLO 205 is > 100 µM (inactive); in the assay with HCC 2998, > 100 µM (inactive); in the assay with HCT-116, > 100 µM (inactive); with HCT-15, 59.4 µM; with HOP-62, > 100 µM (inactive); in the assay with IGROV-1 it was 58.9 µM (inactive). The GI50 with MOLT-4 was 52.4 µM (inactive); in the assay with Malme-3M, 61.7 µM (inactive); in the assay on NCI/ADR-RES, > 100 µM (inactive); in the assay on OVCAR-3, > 100 µM (inactive); in the assay on OVCAR-4 it was > 100 µM (inactive); in the assay on OVCAR-8, > 100 µM (inactive). The GI50 in the assay on RPMI-8226 is 82.6 µM (inactive); with SK-MEL-28 it was > 100 µM (inactive); with SR it was 29.8 µM (inactive); with U-251, 54.7 µM (inactive); in the assay with UO-31, 43.4 µM (inactive).

For `O=C1Cc2c([nH]c3ccccc23)C2(CC3CCCCN13)OCCO2` (stereo unspecified), the GI50 in the assay with COLO 205 was > 100 µM (inactive); with HCC 2998, 90.6 µM (inactive); with HCT-116, > 100 µM (inactive); in the assay on HCT-15 it was > 100 µM; in the assay on HOP-62 it was > 100 µM (inactive); in the assay with IGROV-1, 45.2 µM (inactive). In addition, the GI50 with Malme-3M was 62.2 µM (inactive); with NCI/ADR-RES, > 100 µM (inactive); in the assay with OVCAR-3, > 100 µM (inactive); with OVCAR-4, > 100 µM (inactive); in the assay on OVCAR-8, > 100 µM (inactive); in the assay with RPMI-8226 it was > 100 µM (inactive). In addition, the GI50 with SF-268, in the assay on SK-MEL-28, with SNB-19, in the assay with SR, with U-251 and in the assay on UO-31 was > 100 µM (inactive) in each case.

As to `Cc1cc2ccccc2oc(=O)/c1=N\Nc1ccccc1`, the GI50 with COLO 205 is > 100 µM (inactive); in the assay with HCC 2998 it was > 100 µM (inactive); in the assay with HCT-116, 41.9 µM (inactive); in the assay with HCT-15 it was > 100 µM; in the assay with HOP-62, 19.3 µM (inactive); in the assay on IGROV-1, 25.8 µM (inactive). Besides, the GI50 with MOLT-4 was > 100 µM (inactive); in the assay on Malme-3M, > 100 µM (inactive); with NCI/ADR-RES it was 32.3 µM (inactive); with OVCAR-3, > 100 µM (inactive); in the assay with OVCAR-4, 48.1 µM (inactive); in the assay on OVCAR-8, 28.8 µM (inactive). Also, the GI50 in the assay with RPMI-8226 is > 100 µM (inactive); in the assay on SK-MEL-28, > 100 µM (inactive); with SNB-19, 36.2 µM (inactive); with SR it was > 100 µM (inactive); in the assay on U-251 it was 39.9 µM (inactive); with UO-31, 24.9 µM (inactive).

In the case of `COc1cc(/C=C/C2=NN(c3cccc(S(=O)(=O)O)c3)C3(C2)SCC(=O)N3c2nc3ccccc3s2)cc(OC)c1OC` (stereo unspecified), the GI50 is > 100 µM (inactive) in the assay with COLO 205; > 100 µM (inactive) with HCC 2998; 50.5 µM (inactive) with HCT-116; 51.9 µM with HCT-15; 43.2 µM (inactive) with IGROV-1; 32.9 µM (inactive) in the assay on MOLT-4. For the same molecule, the GI50 in the assay with Malme-3M was > 100 µM (inactive); with NCI/ADR-RES, 42.7 µM (inactive); in the assay with OVCAR-4 it was 78.7 µM (inactive); with OVCAR-8 it was 44.1 µM (inactive); in the assay on RPMI-8226, 21.3 µM (inactive); in the assay on SF-268, 39.4 µM (inactive). Besides, the GI50 with SK-MEL-28 is > 100 µM (inactive); in the assay on SNB-19, 31.9 µM (inactive); in the assay with SR, 23.8 µM (inactive); in the assay on U-251, 33 µM (inactive); with UO-31, 36.1 µM (inactive).

For the molecule `CCOC(=O)Nn1cnnc1Cc1ccccc1`, the GI50 was > 100 µM (inactive) in the assay with COLO 205; > 100 µM (inactive) in the assay on HCC 2998; > 100 µM (inactive) in the assay with HCT-116; > 100 µM with HCT-15; > 100 µM (inactive) with HOP-62; > 100 µM (inactive) in the assay with IGROV-1. For the same molecule, the GI50 with MOLT-4, with Malme-3M, in the assay on NCI/ADR-RES, in the assay on OVCAR-3, with OVCAR-4 and with OVCAR-8 was > 100 µM (inactive) each time. The GI50 in the assay with RPMI-8226, in the assay with SF-268, with SNB-19, in the assay with SR, with U-251 and in the assay on UO-31 was > 100 µM (inactive) throughout.

Turning to `CCC(C)(C)C1CCC2c3c([nH]c4ccccc34)C3C(=O)N(c4ccc(OC)cc4)C(=O)C3C2C1` (stereo unspecified), the GI50 in the assay on COLO 205 is 10.3 µM (inactive); with HCC 2998 it was 5.77 µM (inactive); with HCT-116 it was 9.08 µM (inactive); in the assay with HCT-15 it was 27.5 µM; with HOP-62 it was 10.2 µM (inactive); in the assay with IGROV-1, 15.7 µM (inactive). Besides, the GI50 was 3.62 µM (inactive) with MOLT-4; 19.4 µM (inactive) in the assay on Malme-3M; 15.6 µM (inactive) with NCI/ADR-RES; 2.19 µM (inactive) in the assay on OVCAR-3; 16.7 µM (inactive) with OVCAR-4; 12.9 µM (inactive) with OVCAR-8. The GI50 in the assay on SF-268 is 15 µM (inactive); with SK-MEL-28 it was 25.9 µM (inactive); in the assay with SNB-19, 25.6 µM (inactive); in the assay on SR, 39.8 µM (inactive); in the assay with U-251 it was 11.5 µM (inactive); in the assay with UO-31, 24.4 µM (inactive).

With `CC(C)=C/C(CC(O)(C(F)(F)F)C(F)(F)F)=N\O`, the GI50 with COLO 205 is > 100 µM (inactive); in the assay with HCC 2998, > 100 µM (inactive); with HCT-116, > 100 µM (inactive); in the assay on HCT-15, > 100 µM; with HOP-62, > 100 µM (inactive); in the assay with IGROV-1, > 100 µM (inactive). The GI50 with MOLT-4, in the assay on Malme-3M, in the assay with NCI/ADR-RES, in the assay on OVCAR-4, in the assay on OVCAR-8 and in the assay with RPMI-8226 was > 100 µM (inactive) each time. Also, the GI50 in the assay with SF-268, with SK-MEL-28, with SNB-19, in the assay on SR, in the assay with U-251 and in the assay with UO-31 was > 100 µM (inactive) each time.

As to `CC(=O)N1N=C(c2ccc3ccccc3c2O)CC1C(=O)c1ccco1` (stereo unspecified), the GI50 with COLO 205 is 25.8 µM (inactive); with HCC 2998 it was 16.3 µM (inactive); in the assay on HCT-116 it was 28.6 µM (inactive); in the assay with HCT-15 it was 26.7 µM; in the assay on HOP-62 it was 30.6 µM (inactive); in the assay on IGROV-1 it was 12.7 µM (inactive). Moreover, the GI50 in the assay with MOLT-4 is 5.62 µM (inactive); with Malme-3M, 23.2 µM (inactive); in the assay on NCI/ADR-RES it was 18.1 µM (inactive); in the assay with OVCAR-3 it was 20.3 µM (inactive); in the assay on OVCAR-4, 17.5 µM (inactive); in the assay on OVCAR-8, 25.5 µM (inactive). The GI50 with RPMI-8226 was 17.2 µM (inactive); in the assay on SF-268, 14.4 µM (inactive); in the assay on SK-MEL-28, 37.8 µM (inactive); in the assay on SR, 3.78 µM (inactive); with U-251, 27.7 µM (inactive); in the assay on UO-31, 23.1 µM (inactive).

As to `COc1cc2cc(C(=O)N3CC(CCl)c4c3cc([N+](=O)[O-])c3ccccc43)[nH]c2c(OC)c1OC` (stereo unspecified), the GI50 was > 76 µM (inactive) with COLO 205; 14.1 µM (inactive) with HCC 2998; 27 µM (inactive) with HCT-116; 8.91 µM (inactive) in the assay with HOP-62; 33 µM (inactive) with IGROV-1; 13.8 µM (inactive) with MOLT-4. Further, the GI50 with Malme-3M is 68.1 µM (inactive); in the assay on NCI/ADR-RES it was 9.06 µM (inactive); in the assay on OVCAR-3 it was > 100 µM (inactive); with OVCAR-4, > 51.2 µM (inactive); in the assay on OVCAR-8, 12.8 µM (inactive); in the assay on RPMI-8226, > 100 µM (inactive). Also, the GI50 in the assay with SF-268 was 26.8 µM (inactive); with SK-MEL-28, > 100 µM (inactive); in the assay on SNB-19, 87.7 µM (inactive); in the assay with SR, 0.455 µM (active); in the assay with U-251, 25.8 µM (inactive); in the assay on UO-31 it was > 100 µM (inactive).

For the molecule `Cc1ccc2c(c1)NC(=O)CC(c1ccccc1)=N2`, the GI50 in the assay with HCC 2998 is > 100 µM (inactive); in the assay on HCT-116 it was 61.5 µM (inactive); in the assay on HCT-15, 61.4 µM; in the assay with HOP-62, > 100 µM (inactive); in the assay on IGROV-1 it was > 100 µM (inactive); in the assay on MOLT-4 it was 28.6 µM (inactive). In addition, the GI50 is > 100 µM (inactive) in the assay with Malme-3M; 77.4 µM (inactive) with NCI/ADR-RES; > 100 µM (inactive) in the assay on OVCAR-3; > 100 µM (inactive) in the assay on OVCAR-4; > 100 µM (inactive) in the assay with OVCAR-8; 17.4 µM (inactive) with RPMI-8226. In addition, the GI50 with SF-268 was > 100 µM (inactive); in the assay on SK-MEL-28, > 100 µM (inactive); in the assay with SNB-19, > 100 µM (inactive); in the assay with SR, 23.7 µM (inactive); in the assay on U-251, > 100 µM (inactive); with UO-31, 63.1 µM (inactive).
